Test results from patent publication US5756491A, “Antiviral cobalt-organic compounds” (priority 1991, dated 1998).

Assays:
[1] = system: human foreskin fibroblast (HFF) cell monolayers; assay: Toxicity effects controls: sham-inoculated compound-treated HFF monolayers; format: cell-based; as to Toxicity effects: key: +: toxic; -: no toxicity; ±: mild toxicity; T: toxicity effects interfered with CPE rating
Description: (§1) With sufficient stirring, all the compounds completely dissolved.
In the tables, the symbols have the meaning indicated: […]

HSV-1 McKrae Strain [2] = assay: Direct virucidal efficacy against HSV-1 on HFF monolayers; format: cell-based; conditions: for virucidal efficacy (HSV-1 titer): 24 h PI
HFF cells = assay: MTT assay for cell cytotoxicity; format: cell-based, human; conditions: stationary cells
Procedure: Twenty-four hours prior to assay, HFF cells are plated into 96 well plates at a concentration of […] cells per well. After 24 h, the media is aspirated and […] of drug is added to the first row of wells and then diluted serially 1:5 using the automated Cetus Liquid Handling System in a manner similar to that used in the CPE assay. The plates are then incubated in a CO2 incubator at 37° C. for seven days. At this time, each well receives 50 microliters of […] solution of MTT in Dulbecco's Phosphate Buffered Saline. The plates are then incubated for an additional four hours. At this time, the media is removed and replaced with 100 μl of 0.04N hydrochloric acid in isopropanol. After shaking briefly, the plates are then read on a plate reader at 550 nm.

HSV-1 McKrae Strain [3] = assay: Intracellular antiviral activity against HSV-1 in HFF monolayers; format: cell-based; conditions: for antiviral efficacy (HSV-1 titer): Experiment 7 (Table 18), 24 h PI
Procedure: HSV-1 McKrae Strain was diluted to a final concentration of 10^5 PFU/ml in minimal essential medium (MEM). Hereinafter, this dilution is referred to as the HSV-1 Suspension for convenience.
as §1
HFF cell monolayers were inoculated with the HSV-Suspension prepared as above by absorption for thirty minutes at 37° C. After absorption of the virus, the inoculum was aspirated from the cell monolayers and the HSV-1 infected monolayers were rehydrated with medium containing the appropriate concentration of the solution of the compound by adding 500 microliters of each compound concentration to triplicate HSV-1 infected monolayers. All monolayers were incubated at 37° C. The developing HSV-1 cytopathology was monitored daily for two days by inverted light microscopy and titers were calculated by multiple […] analysis. For the intracellular anti-viral activity, "cell monolayer controls" were obtained using sham inoculated non-treated HFF cell monolayers along with the drug treated monolayers. "Positive controls" were obtained by using HSV-1 inoculated non-CTC compound treated HFF monolayers.

VZV = assay: In vitro assay with VZV on HFF monolayers; format: cell-based; conditions: for virucidal efficacy (VZV titer): Table 20, 7 days PI
Procedure: VZV was grown to a CPE level in vitro assays with VZV of 3-4+ on HFF cell monolayers. The VZV was scraped from the flask, centrifuged and the cell pellet was resuspended in 10 ml of complete medium. One hundred to 200 μl of the VZV cell associated inoculum was inoculated onto confluent HFF cell monolayers by absorption for 60 minutes at 37° C. After absorption of the virus, the inoculum was aspirated from the cell monolayers.
The VZV-infected monolayers were rehydrated with medium containing the appropriate concentrations of compounds to be tested. All monolayers were incubated at 37° C. Development of VZV cytopathology was monitored daily for 7 days by inverted light microscopy. Titers were calculated by multiple regression analysis.
Sham-inoculated, non-treated HFF cell monolayers were included among with the drug-treated monolayers as cell monolayer controls.
VZV inoculated, non-treated HFF monolayers were included as positive controls.

CC(=NCCN=C(C)C(Cl)=C(C)[O-])C(Cl)=C(C)[O-].[Br-].[Co+3].c1c[nH]cn1.c1c[nH]cn1 [Compound 93]
toxicity effects ([1]; Experiment 4 (Table 10), 24 h, 0.001 mg/ml): - | toxicity effects ([1]; Experiment 4 (Table 10), 24 h, 0.01 mg/ml): - | toxicity effects ([1]; Experiment 4 (Table 10), 24 h, 0.1 mg/ml): - | toxicity effects ([1]; Experiment 4 (Table 10), 24 h, 0.5 mg/ml): - | toxicity effects ([1]; Experiment 4 (Table 10), 24 h, 1 mg/ml): - | toxicity effects ([1]; Experiment 4 (Table 10), 48 h, 0.001 mg/ml): - | toxicity effects ([1]; Experiment 4 (Table 10), 48 h, 0.01 mg/ml): - | toxicity effects ([1]; Experiment 4 (Table 10), 48 h, 0.5 mg/ml): - | toxicity effects ([1]; Experiment 4 (Table 10), 48 h, 1 mg/ml): - | toxicity effects ([1]; Experiment 6 (Table 15), 48 h, 0.001 mg/ml): - | toxicity effects ([1]; Experiment 6 (Table 15), 48 h, 0.01 mg/ml): - | toxicity to HFF monolayers (comment) ([1]; Experiment 6 comment, more pronounced at 0.5 and 0.1 mg/ml, cell rounding, detaching, granularity): toxicity observed | virucidal efficacy (HSV-1 titer) (HSV-1 McKrae Strain [2]; Experiment 4 (Table 9), Run 1, 0.001 mg/ml): 10^5 PFU/ml | virucidal efficacy (HSV-1 titer) (HSV-1 McKrae Strain [2]; Experiment 4 (Table 9), Run 1, 0.5 mg/ml): 10^2 PFU/ml | virucidal efficacy (HSV-1 titer) (HSV-1 McKrae Strain [2]; Experiment 4 (Table 9), Run 1, 1 mg/ml): 0 PFU/ml | virucidal efficacy (HSV-1 titer) (HSV-1 McKrae Strain [2]; Experiment 4 (Table 9), Run 1, 5 mg/ml): 0 PFU/ml | virucidal efficacy (HSV-1 titer) (HSV-1 McKrae Strain [2]; Experiment 4 (Table 9), Run 2, 0.01 mg/ml): 10^2 PFU/ml | virucidal efficacy (HSV-1 titer) (HSV-1 McKrae Strain [2]; Experiment 4 (Table 9), Run 2, 0.1 mg/ml): 0 PFU/ml | virucidal efficacy (HSV-1 titer) (HSV-1 McKrae Strain [2]; Experiment 4 (Table 9), Run 2, 0.5 mg/ml): 0 PFU/ml | virucidal efficacy (HSV-1 titer) (HSV-1 McKrae Strain [2]; Experiment 4 (Table 9), Run 2, 1 mg/ml): 0 PFU/ml | virucidal efficacy (HSV-1 titer) (HSV-1 McKrae Strain [2]; Experiment 4 (Table 9), Run 2, 5 mg/ml): 0 PFU/ml | effective virucidal concentration IC50 (HSV-1 McKrae Strain [2]; Experiment 4 (Table 11), HSV-1): 500 µg/mL | effective virucidal concentration IC90 (HSV-1 McKrae Strain [2]; Experiment 4 (Table 11), HSV-1): > 1000 µg/mL | virucidal efficacy (HSV-1 titer) (HSV-1 McKrae Strain [2]; Experiment 6 (Table 16), 0.1 mg/ml): 10^2 PFU/ml | virucidal efficacy (HSV-1 titer) (HSV-1 McKrae Strain [2]; Experiment 6 (Table 16), 0.5 mg/ml): 0 PFU/ml | virucidal efficacy (HSV-1 titer) (HSV-1 McKrae Strain [2]; Experiment 6 (Table 16), 1 mg/ml): 0 PFU/ml | effective virucidal concentration IC50 (HSV-1 McKrae Strain [2]; Experiment 6 (Table 17), HSV-1): 100 µg/mL | efficacy in virucidal assay (comment) (HSV-1 McKrae Strain [2]; Experiment 6 comment, reduction in toxicity resulted in it): reduction in efficacy | toxicity IC50, MTT toxicity (HFF cells): 65.0 MCG/ML | antiviral efficacy (HSV-1 titer) (HSV-1 McKrae Strain [3]; 0.001 mg/ml): 10^5 PFU/ml | antiviral efficacy (HSV-1 titer) (HSV-1 McKrae Strain [3]; 0.5 mg/ml): 10^2 PFU/ml | antiviral efficacy (HSV-1 titer) (HSV-1 McKrae Strain [3]; 1 mg/ml): 0 PFU/ml | effective virucidal concentration IC50 (HSV-1 McKrae Strain [3]; Experiment 7 (Table 19), HSV-1): 500 µg/mL | virucidal efficacy (VZV titer) (VZV; 0.001 mg/ml): 10^4 PFU/ml | virucidal efficacy (VZV titer) (VZV; 0.01 mg/ml): 10^2 PFU/ml | virucidal efficacy (VZV titer) (VZV; 0.1 mg/ml, toxicity observation questionable): T? | effective virucidal concentration IC50 (VZV; Table 21, VZV): 10 µg/mL
